Experiments:
[1] = target: AP2-associated protein kinase 1 (Homo sapiens) (UniProt Q2M2I8)
[2] = target: Activin receptor type-2A (Homo sapiens) (UniProt P27037)
[3] = target: Atypical kinase COQ8A, mitochondrial (Homo sapiens) (UniProt Q8NI60)
[4] = target: Calcium/calmodulin-dependent protein kinase type 1G (Homo sapiens) (UniProt Q96NX5)
[5] = test system: Epidermal growth factor receptor (Homo sapiens), P00533 [G719S]
[6] = test system: Epidermal growth factor receptor (Homo sapiens), P00533 [UNDEFINED MUTATION]
[7] = target: Eukaryotic translation initiation factor 2-alpha kinase 1 (Homo sapiens) (UniProt Q9BQI3)
[8] = target: Ephrin type-A receptor 8 (Homo sapiens) (UniProt P29322)
[9] = target: Mitogen-activated protein kinase 7 (Homo sapiens) (UniProt Q13164)
[10] = target: Tyrosine-protein kinase Fer (Homo sapiens) (UniProt P16591)
[11] = target: Fibroblast growth factor receptor 3 (Homo sapiens) (UniProt P22607)
[12] = test system: Receptor-type tyrosine-protein kinase FLT3 (Homo sapiens), P36888 [D835H]
[13] = target: Glycogen synthase kinase-3 alpha (Homo sapiens) (UniProt P49840)
[14] = target: Mitogen-activated protein kinase kinase kinase kinase 1 (Homo sapiens) (UniProt Q92918)
[15] = target: Tyrosine-protein kinase JAK2 (Homo sapiens) (UniProt O60674)
[16] = target: Tyrosine-protein kinase JAK3 (Homo sapiens) (UniProt P52333)
Chain of Tyrosine-protein kinase JAK3 (Homo sapiens) (P52333 whole entry): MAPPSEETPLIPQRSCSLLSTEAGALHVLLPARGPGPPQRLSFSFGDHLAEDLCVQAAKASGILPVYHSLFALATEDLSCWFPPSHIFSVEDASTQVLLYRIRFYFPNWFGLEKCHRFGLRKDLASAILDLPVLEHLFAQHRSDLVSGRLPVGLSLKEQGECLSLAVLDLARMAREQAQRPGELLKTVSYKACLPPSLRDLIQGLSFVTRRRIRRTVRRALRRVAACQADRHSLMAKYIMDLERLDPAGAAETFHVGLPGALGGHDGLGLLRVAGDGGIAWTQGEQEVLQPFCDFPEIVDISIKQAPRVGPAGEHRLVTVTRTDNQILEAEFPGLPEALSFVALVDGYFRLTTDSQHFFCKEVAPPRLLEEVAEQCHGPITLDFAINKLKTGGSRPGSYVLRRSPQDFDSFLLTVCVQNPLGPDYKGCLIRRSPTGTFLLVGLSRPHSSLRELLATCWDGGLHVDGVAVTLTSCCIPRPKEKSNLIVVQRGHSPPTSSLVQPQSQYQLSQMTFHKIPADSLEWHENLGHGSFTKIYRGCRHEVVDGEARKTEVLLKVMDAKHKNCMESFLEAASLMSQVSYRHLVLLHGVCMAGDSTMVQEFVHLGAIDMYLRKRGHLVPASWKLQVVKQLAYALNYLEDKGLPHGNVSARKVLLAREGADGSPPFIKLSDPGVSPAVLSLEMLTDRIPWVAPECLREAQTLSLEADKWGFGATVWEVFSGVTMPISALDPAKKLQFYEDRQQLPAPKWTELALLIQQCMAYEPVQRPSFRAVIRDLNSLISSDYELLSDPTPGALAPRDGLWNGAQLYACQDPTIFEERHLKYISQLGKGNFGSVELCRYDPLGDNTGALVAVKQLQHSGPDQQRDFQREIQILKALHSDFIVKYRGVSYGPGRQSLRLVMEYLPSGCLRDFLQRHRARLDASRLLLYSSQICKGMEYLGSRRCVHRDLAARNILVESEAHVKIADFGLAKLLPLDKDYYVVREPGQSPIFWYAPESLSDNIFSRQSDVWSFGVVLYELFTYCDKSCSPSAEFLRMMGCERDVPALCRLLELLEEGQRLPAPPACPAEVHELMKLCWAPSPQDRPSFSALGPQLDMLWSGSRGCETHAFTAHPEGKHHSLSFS

[17] = test system: Mast/stem cell growth factor receptor Kit (Homo sapiens), P10721 [L576P]
[18] = target: Tyrosine-protein kinase Lck (Homo sapiens) (UniProt P06239)
[19] = target: MAP kinase-interacting serine/threonine-protein kinase 1 (Homo sapiens) (UniProt Q9BUB5)
[20] = target: Serine/threonine-protein kinase Nek1 (Homo sapiens) (UniProt Q96PY6)
[21] = target: Serine/threonine-protein kinase Nek11 (Homo sapiens) (UniProt Q8NG66)
Chain of Serine/threonine-protein kinase Nek11 (Homo sapiens) (Q8NG66 whole entry): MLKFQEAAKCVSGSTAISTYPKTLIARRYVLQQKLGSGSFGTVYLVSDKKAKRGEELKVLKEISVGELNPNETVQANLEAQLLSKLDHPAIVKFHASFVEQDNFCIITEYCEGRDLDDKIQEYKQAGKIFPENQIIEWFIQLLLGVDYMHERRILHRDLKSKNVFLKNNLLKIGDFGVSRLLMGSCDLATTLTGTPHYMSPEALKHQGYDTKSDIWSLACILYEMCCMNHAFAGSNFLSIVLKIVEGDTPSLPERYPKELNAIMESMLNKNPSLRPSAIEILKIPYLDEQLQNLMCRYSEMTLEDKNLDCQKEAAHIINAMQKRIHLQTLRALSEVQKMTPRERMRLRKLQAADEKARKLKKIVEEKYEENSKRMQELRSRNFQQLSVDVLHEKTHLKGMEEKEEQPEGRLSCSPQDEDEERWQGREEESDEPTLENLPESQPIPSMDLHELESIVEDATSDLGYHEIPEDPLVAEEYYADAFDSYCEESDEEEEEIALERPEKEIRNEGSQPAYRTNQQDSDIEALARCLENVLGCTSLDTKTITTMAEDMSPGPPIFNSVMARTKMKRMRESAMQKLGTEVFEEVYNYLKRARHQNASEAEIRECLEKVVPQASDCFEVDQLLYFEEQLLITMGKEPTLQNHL

[22] = target: Serine/threonine-protein kinase Nek5 (Homo sapiens) (UniProt Q6P3R8)
[23] = target: Serine/threonine-protein kinase OSR1 (Homo sapiens) (UniProt O95747)
[24] = test system: Phosphatidylinositol 4,5-bisphosphate 3-kinase catalytic subunit alpha isoform (Homo sapiens), P42336 [E542K]
[25] = test system: Phosphatidylinositol 4,5-bisphosphate 3-kinase catalytic subunit alpha isoform (Homo sapiens), P42336 [E545K]
[26] = target: Phosphatidylinositol 4-kinase beta (Homo sapiens) (UniProt Q9UBF8)
[27] = target: Phosphatidylinositol 5-phosphate 4-kinase type-2 gamma (Homo sapiens) (UniProt Q8TBX8)
[28] = target: Protein kinase C epsilon type (Homo sapiens) (UniProt Q02156)
[29] = target: cGMP-dependent protein kinase 1 (Homo sapiens) (UniProt Q13976)
[30] = test system: Proto-oncogene tyrosine-protein kinase receptor Ret (Homo sapiens), P07949 [M918T]
[31] = target: Ribosomal protein S6 kinase alpha-4 (Homo sapiens) (UniProt O75676)
[32] = target: Serine/threonine-protein kinase SIK2 (Homo sapiens) (UniProt Q9H0K1)
[33] = target: NUAK family SNF1-like kinase 2 (Homo sapiens) (UniProt Q9H093)
[34] = target: Proto-oncogene tyrosine-protein kinase Src (Homo sapiens) (UniProt P12931)
Chain of Proto-oncogene tyrosine-protein kinase Src (Homo sapiens) (P12931 2-536 limits assumed): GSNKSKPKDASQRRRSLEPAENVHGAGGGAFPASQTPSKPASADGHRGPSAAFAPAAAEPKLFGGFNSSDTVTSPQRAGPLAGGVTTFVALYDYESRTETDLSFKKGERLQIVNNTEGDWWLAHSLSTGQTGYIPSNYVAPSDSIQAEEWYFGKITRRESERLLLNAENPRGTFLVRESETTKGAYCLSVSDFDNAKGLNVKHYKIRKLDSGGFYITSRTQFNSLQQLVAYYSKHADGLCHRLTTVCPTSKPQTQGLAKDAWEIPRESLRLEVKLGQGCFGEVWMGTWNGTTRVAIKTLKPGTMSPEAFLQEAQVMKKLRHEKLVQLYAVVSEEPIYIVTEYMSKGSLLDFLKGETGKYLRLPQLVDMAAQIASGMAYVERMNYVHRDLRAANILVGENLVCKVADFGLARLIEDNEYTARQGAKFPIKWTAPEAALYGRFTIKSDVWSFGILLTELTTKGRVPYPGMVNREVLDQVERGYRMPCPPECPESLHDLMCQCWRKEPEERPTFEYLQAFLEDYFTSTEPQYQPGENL

[35] = target: Tyrosine-protein kinase Srms (Homo sapiens) (UniProt Q9H3Y6)
Chain of Tyrosine-protein kinase Srms (Homo sapiens) (Q9H3Y6 whole entry): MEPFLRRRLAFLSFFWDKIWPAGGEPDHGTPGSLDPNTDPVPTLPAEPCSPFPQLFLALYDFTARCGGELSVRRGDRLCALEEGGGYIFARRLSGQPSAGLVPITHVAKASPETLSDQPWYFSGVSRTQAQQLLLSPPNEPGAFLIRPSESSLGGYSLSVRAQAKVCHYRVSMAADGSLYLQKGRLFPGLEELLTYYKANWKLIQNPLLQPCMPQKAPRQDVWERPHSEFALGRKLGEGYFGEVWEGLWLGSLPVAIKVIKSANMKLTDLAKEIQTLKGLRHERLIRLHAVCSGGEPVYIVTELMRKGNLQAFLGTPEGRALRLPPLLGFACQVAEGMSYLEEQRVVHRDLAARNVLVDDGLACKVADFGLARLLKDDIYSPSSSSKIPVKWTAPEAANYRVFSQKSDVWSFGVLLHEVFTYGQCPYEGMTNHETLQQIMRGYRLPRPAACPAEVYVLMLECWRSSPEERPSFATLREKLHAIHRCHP

[36] = target: SRSF protein kinase 1 (Homo sapiens) (UniProt Q96SB4)
Chain of SRSF protein kinase 1 (Homo sapiens) (Q96SB4 whole entry): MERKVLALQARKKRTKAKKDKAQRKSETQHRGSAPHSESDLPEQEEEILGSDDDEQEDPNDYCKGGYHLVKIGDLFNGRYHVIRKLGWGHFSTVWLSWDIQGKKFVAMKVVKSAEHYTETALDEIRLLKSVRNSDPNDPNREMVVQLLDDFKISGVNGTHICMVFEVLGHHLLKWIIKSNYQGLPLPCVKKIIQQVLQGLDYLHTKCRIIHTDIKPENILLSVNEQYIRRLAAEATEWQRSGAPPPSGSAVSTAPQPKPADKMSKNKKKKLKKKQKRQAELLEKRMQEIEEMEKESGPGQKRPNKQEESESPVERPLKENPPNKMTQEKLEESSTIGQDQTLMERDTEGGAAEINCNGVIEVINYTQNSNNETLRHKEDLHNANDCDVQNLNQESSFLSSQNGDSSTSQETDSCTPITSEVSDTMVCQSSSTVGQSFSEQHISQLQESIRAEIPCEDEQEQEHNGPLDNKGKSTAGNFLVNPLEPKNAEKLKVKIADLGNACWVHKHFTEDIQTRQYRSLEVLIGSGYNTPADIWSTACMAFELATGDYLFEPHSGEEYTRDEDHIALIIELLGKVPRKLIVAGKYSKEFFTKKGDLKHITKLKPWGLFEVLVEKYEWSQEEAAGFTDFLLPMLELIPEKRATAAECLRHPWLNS

[37] = target: TGF-beta receptor type-2 (Homo sapiens) (UniProt P37173)
[38] = target: Non-receptor tyrosine-protein kinase TYK2 (Homo sapiens) (UniProt P29597)
Chain of Non-receptor tyrosine-protein kinase TYK2 (Homo sapiens) (P29597 whole entry): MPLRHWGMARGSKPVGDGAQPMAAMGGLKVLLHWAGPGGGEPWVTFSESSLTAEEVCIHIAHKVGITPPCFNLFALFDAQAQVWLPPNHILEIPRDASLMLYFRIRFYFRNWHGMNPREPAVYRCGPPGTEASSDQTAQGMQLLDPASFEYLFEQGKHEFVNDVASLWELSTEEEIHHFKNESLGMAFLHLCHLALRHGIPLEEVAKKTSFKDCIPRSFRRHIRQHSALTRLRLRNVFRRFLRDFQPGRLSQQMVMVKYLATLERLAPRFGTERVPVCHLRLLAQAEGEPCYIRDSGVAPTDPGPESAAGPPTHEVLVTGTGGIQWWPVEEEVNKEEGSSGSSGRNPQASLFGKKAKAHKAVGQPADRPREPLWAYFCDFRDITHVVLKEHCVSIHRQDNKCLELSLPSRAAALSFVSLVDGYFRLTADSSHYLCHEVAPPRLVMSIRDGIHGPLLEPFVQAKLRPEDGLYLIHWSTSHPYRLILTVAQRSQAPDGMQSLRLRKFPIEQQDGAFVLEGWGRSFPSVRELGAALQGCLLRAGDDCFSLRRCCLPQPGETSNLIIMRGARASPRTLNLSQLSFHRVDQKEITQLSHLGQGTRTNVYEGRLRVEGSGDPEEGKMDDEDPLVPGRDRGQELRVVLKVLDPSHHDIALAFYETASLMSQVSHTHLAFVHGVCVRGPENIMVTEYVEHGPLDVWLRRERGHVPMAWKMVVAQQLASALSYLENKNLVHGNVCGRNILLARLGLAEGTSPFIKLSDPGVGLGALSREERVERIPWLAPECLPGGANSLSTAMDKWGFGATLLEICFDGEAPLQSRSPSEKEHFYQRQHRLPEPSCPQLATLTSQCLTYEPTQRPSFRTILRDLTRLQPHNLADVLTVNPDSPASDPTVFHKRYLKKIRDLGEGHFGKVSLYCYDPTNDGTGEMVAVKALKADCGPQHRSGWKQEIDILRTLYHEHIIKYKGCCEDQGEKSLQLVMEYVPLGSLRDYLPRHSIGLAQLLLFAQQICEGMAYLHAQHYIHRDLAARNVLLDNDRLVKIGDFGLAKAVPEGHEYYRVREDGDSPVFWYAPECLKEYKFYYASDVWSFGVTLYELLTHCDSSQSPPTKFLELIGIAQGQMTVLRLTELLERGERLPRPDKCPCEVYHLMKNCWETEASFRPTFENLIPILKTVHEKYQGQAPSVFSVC

[39] = target: Non-receptor tyrosine-protein kinase TYK2 (Homo sapiens) (UniProt P29597); remark: listed apart in the source
[40] = target: Serine/threonine-protein kinase ULK3 (Homo sapiens) (UniProt Q6PHR2)
[41] = target: Vascular endothelial growth factor receptor 2 (Homo sapiens) (UniProt P35968)
[42] = target: Phosphatidylinositol 3-kinase catalytic subunit type 3 (Homo sapiens) (UniProt Q8NEB9)
[43] = target: Kappa-type opioid receptor (Homo sapiens) (UniProt P41145); conditions: Compound concentration 10.0 uM
[44] = target: Alpha-2C adrenergic receptor (Homo sapiens) (UniProt P18825); conditions: Compound concentration 10.0 uM
[45] = target: Beta-2 adrenergic receptor (Homo sapiens) (UniProt P07550); conditions: Compound concentration 10.0 uM
Chain of Beta-2 adrenergic receptor (Homo sapiens) (P07550 whole entry, looked up): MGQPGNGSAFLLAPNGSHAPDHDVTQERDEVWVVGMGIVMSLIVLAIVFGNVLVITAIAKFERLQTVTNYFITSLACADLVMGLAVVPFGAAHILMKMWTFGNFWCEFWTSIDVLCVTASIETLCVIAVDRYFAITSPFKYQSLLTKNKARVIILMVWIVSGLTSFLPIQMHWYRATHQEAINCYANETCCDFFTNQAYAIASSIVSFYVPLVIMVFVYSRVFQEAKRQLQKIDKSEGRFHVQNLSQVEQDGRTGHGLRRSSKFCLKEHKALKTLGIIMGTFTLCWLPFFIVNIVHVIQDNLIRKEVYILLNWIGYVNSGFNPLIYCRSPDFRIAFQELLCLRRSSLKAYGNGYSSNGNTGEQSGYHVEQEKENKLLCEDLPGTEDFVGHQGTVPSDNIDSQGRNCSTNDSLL

[46] = Compound concentration 1000.0 nM
[47] = Compound concentration 100.0 nM

CN(C)c1ncnc(-c2ccc3nc(Nc4cc(CN5CCN(C(=O)CC(F)(F)F)CC5)ccn4)[nH]c3c2)c1Cl [BAY-440]
residual activity [1, 46]: 85%
residual activity [2, 46]: 90%
residual activity [3, 46]: 100%
residual activity [4, 46]: 100%
residual activity [5, 46]: 79%
residual activity [6, 46]: 88%
residual activity [7, 46]: 54%
residual activity [8, 46]: 100%
residual activity [9, 46]: 91%
residual activity [10, 46]: 100%
residual activity [11, 46]: 100%
residual activity [12, 46]: 42%
residual activity [13, 46]: 75%
residual activity [14, 46]: 91%
residual activity [15, 46]: 44%
residual activity [16, 46]: 71%
residual activity [17, 46]: 87%
residual activity [18, 46]: 100%
residual activity [19, 46]: 62%
residual activity [20, 46]: 88%
residual activity [21, 46]: 55%
residual activity [22, 46]: 100%
residual activity [23, 46]: 94%
residual activity [24, 46]: 29%
residual activity [25, 46]: 76%
residual activity [26, 46]: 100%
residual activity [27, 46]: 95%
residual activity [28, 46]: 100%
residual activity [29, 46]: 94%
residual activity [30, 46]: 100%
residual activity [31, 46]: 80%
residual activity [32, 46]: 59%
residual activity [33, 46]: 66%
residual activity [34, 46]: 100%
residual activity [35, 46]: 88%
residual activity [36, 46]: 47%
residual activity [37, 46]: 85%
residual activity [38, 46]: 51%
residual activity [39, 46]: 77%
residual activity [40, 46]: 61%
residual activity [41, 46]: 74%
residual activity [42, 46]: 100%
inhibition [43]: 33.7%
inhibition [44]: 7.09%
inhibition [45]: 12.6%

C[C@H](c1ccnc(Nc2nc3ccc(-c4cc(N(C)C)ncn4)cc3[nH]2)c1)N1CCN(C(=O)CC(F)(F)F)CC1 [BAY-985]
residual activity [1, 47]: 60%
residual activity [2, 47]: 100%
residual activity [3, 47]: 100%
residual activity [4, 47]: 76%
residual activity [5, 47]: 91%
residual activity [6, 47]: 86%
residual activity [7, 47]: 100%
residual activity [8, 47]: 100%
residual activity [9, 47]: 100%
residual activity [10, 47]: 100%
residual activity [11, 47]: 100%
residual activity [12, 47]: 71%
residual activity [13, 47]: 100%
residual activity [14, 47]: 51%
residual activity [15, 47]: 100%
residual activity [16, 47]: 83%
residual activity [17, 47]: 91%
residual activity [18, 47]: 100%
residual activity [19, 47]: 92%
residual activity [20, 47]: 93%
residual activity [21, 47]: 96%
residual activity [22, 47]: 100%
residual activity [23, 47]: 100%
residual activity [24, 47]: 53%
residual activity [25, 47]: 100%
residual activity [26, 47]: 100%
residual activity [27, 47]: 96%
residual activity [28, 47]: 96%
residual activity [29, 47]: 100%
residual activity [30, 47]: 86%
residual activity [31, 47]: 100%
residual activity [32, 47]: 79%
residual activity [33, 47]: 95%
residual activity [34, 47]: 100%
residual activity [35, 47]: 97%
residual activity [36, 47]: 85%
residual activity [37, 47]: 98%
residual activity [38, 47]: 100%
residual activity [39, 47]: 100%
residual activity [40, 47]: 90%
residual activity [41, 47]: 100%
residual activity [42, 47]: 100%
inhibition [43]: 4.24%
inhibition [44]: 9.82%
inhibition [45]: 33.3%

Reference: ChEMBL document CHEMBL4507318, “Data for DCP probe BAY-985” (2021)
